Experimental data as given in PubChem BioAssay (NCI).
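Results reflect a 48-hour exposure of cells in 96-well plates to compound at five concentrations. GI50: concentration for 50% inhibition of growth. TGI marks complete inhibition of growth.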

Tests used:
Experiment in all cases: NCI-60 cell line screen, 48 h
[1] = test system: IGROV1 ovarian
[2] = test system: HOP-62 NSCLC
[3] = test system: MALME-3M melanoma
[4] = test system: HOP-92 NSCLC
[5] = test system: BT-549 breast
[6] = test system: NCI-H522 lung
[7] = test system: OVCAR-8 ovarian
[8] = test system: UO-31 renal
[9] = test system: LOX IMVI melanoma
[10] = test system: MDA-MB-231 breast
[11] = test system: ACHN renal
[12] = test system: SR leukemia
[13] = test system: MOLT-4 leukemia
[14] = test system: NCI-H460 lung
[15] = test system: SF-268 CNS
[16] = test system: NCI-H226 lung
[17] = test system: CCRF-CEM leukemia
[18] = test system: SK-MEL-5 melanoma
[19] = test system: HCC-2998 colon
[20] = test system: RPMI-8226 leukemia
[21] = test system: DU-145 prostate
[22] = test system: PC-3 prostate
[23] = test system: SK-OV-3 ovarian
[24] = test system: 786-0 renal
[25] = test system: CAKI-1 renal
[26] = test system: SF-539 CNS
[27] = test system: KM12 colon
[28] = test system: SN12C renal
[29] = test system: SW-620 colon
[30] = test system: HT29 colon
[31] = test system: HL-60(TB) leukemia
[32] = test system: SNB-75 CNS
[33] = test system: M14 melanoma
[34] = test system: HCT-15 colon
[35] = test system: UACC-257 melanoma
[36] = test system: A549 NSCLC
[37] = test system: SK-MEL-2 melanoma
[38] = test system: A498 renal
[39] = test system: SF-295 CNS
[40] = test system: SK-MEL-28 melanoma
[41] = test system: EKVX NSCLC
[42] = test system: RXF 393 renal
[43] = test system: TK-10 renal
[44] = test system: OVCAR-4 ovarian
[45] = test system: COLO 205 colon
[46] = test system: U251 CNS
[47] = test system: MCF7 breast
[48] = test system: MDA-MB-435
[49] = test system: UACC-62 melanoma
[50] = test system: K-562 leukemia
[51] = test system: HS 578T breast

Cc1ccc(-c2cc3nc(C(Cl)Cl)nc(-c4ccco4)n3n2)cc1
GI50 [1]: 2650 nM
TGI [1]: > 100000 nM
GI50 [2]: 298 nM
TGI [2]: 3820 nM
GI50 [3]: > 100000 nM
TGI [3]: > 100000 nM
GI50 [4]: 339 nM
TGI [4]: 2690 nM
GI50 [5]: > 100000 nM
TGI [5]: > 100000 nM
GI50 [6]: > 100000 nM
TGI [6]: > 100000 nM
GI50 [7]: 604 nM
TGI [7]: > 100000 nM
GI50 [8]: 523 nM
TGI [8]: 3990 nM
GI50 [9]: > 100000 nM
TGI [9]: > 100000 nM
GI50 [10]: 289 nM
TGI [10]: 1850 nM
GI50 [11]: 273 nM
TGI [11]: 1360 nM
GI50 [12]: > 100000 nM
TGI [12]: > 100000 nM
GI50 [13]: > 100000 nM
TGI [13]: > 100000 nM
GI50 [14]: 352 nM
TGI [14]: 1470 nM
GI50 [15]: 1650 nM
TGI [15]: > 100000 nM
GI50 [16]: > 100000 nM
TGI [16]: > 100000 nM
GI50 [17]: > 100000 nM
TGI [17]: > 100000 nM
GI50 [18]: > 100000 nM
TGI [18]: > 100000 nM
GI50 [19]: 321 nM
TGI [19]: 1400 nM
GI50 [20]: 2380 nM
TGI [20]: > 100000 nM
GI50 [21]: 404 nM
TGI [21]: 2350 nM
GI50 [22]: 506 nM
TGI [22]: 4490 nM
GI50 [23]: 3090 nM
TGI [23]: > 100000 nM
GI50 [24]: 2030 nM
TGI [24]: > 100000 nM
GI50 [25]: 832 nM
TGI [25]: 4740 nM
GI50 [26]: 927 nM
TGI [26]: 3330 nM
GI50 [27]: 1810 nM
TGI [27]: 5520 nM
GI50 [28]: > 100000 nM
TGI [28]: > 100000 nM
GI50 [29]: 583 nM
TGI [29]: > 100000 nM
GI50 [30]: 328 nM
TGI [30]: 1230 nM
GI50 [31]: 348 nM
TGI [31]: 3250 nM
GI50 [32]: 186 nM
TGI [32]: 1710 nM
GI50 [33]: > 100000 nM
TGI [33]: > 100000 nM
GI50 [34]: 845 nM
TGI [34]: > 100000 nM

Cc1ccc2c(c1)Oc1nc(N)c(C#N)c(N)c1C2Sc1ccc(F)cc1 (stereo unspecified)
GI50 [35]: 1290 nM
TGI [35]: 2580 nM
GI50 [2]: 1620 nM
TGI [2]: 3080 nM
GI50 [3]: 992 nM
TGI [3]: 2340 nM
GI50 [36]: 1550 nM
TGI [36]: 3010 nM
GI50 [4]: 1140 nM
TGI [4]: 2440 nM
GI50 [37]: 1300 nM
TGI [37]: 2600 nM
GI50 [5]: 415 nM
TGI [5]: 1710 nM
GI50 [6]: 785 nM
TGI [6]: 2100 nM
GI50 [7]: 1300 nM
TGI [7]: 2610 nM
GI50 [8]: 215 nM
TGI [8]: 1720 nM
GI50 [11]: 1340 nM
TGI [11]: 2630 nM
GI50 [38]: 1450 nM
TGI [38]: 2780 nM
GI50 [12]: 301 nM
TGI [12]: > 100000 nM
GI50 [13]: 306 nM
GI50 [39]: 1680 nM
TGI [39]: 3070 nM
GI50 [15]: 1230 nM
TGI [15]: 2520 nM
GI50 [40]: 1170 nM
TGI [40]: 2400 nM
GI50 [41]: 1220 nM
TGI [41]: 2470 nM
GI50 [42]: 611 nM
TGI [42]: 1690 nM
GI50 [16]: 1530 nM
TGI [16]: 4160 nM
GI50 [43]: 2230 nM
TGI [43]: 3700 nM
GI50 [17]: 201 nM
TGI [17]: > 100000 nM
GI50 [18]: 1570 nM
TGI [18]: 2950 nM
GI50 [19]: 1510 nM
TGI [19]: 2920 nM
GI50 [44]: 1450 nM
TGI [44]: 2780 nM
GI50 [20]: 448 nM
TGI [20]: > 100000 nM
GI50 [45]: 1330 nM
TGI [45]: 2780 nM
GI50 [21]: 1480 nM
TGI [21]: 2820 nM
GI50 [46]: 1170 nM
TGI [46]: 2490 nM
GI50 [47]: 361 nM
TGI [47]: 1990 nM
GI50 [48]: 1260 nM
TGI [48]: 2670 nM
GI50 [23]: 1800 nM
TGI [23]: 3290 nM
GI50 [24]: 1190 nM
TGI [24]: 2450 nM
GI50 [49]: 1500 nM
TGI [49]: 2870 nM
GI50 [26]: 1340 nM
TGI [26]: 2630 nM
GI50 [50]: 309 nM
TGI [50]: > 100000 nM
GI50 [27]: 1480 nM
TGI [27]: 2830 nM
GI50 [30]: 1820 nM
TGI [30]: 3430 nM
GI50 [31]: 242 nM
TGI [31]: 647 nM
GI50 [32]: 956 nM
TGI [32]: 2330 nM
GI50 [33]: 1440 nM
TGI [33]: 2850 nM
GI50 [51]: 1020 nM
TGI [51]: 4220 nM
